Experimental data from paper PMC2363627 (British Journal of Cancer, 2001).
Several values for one entry are separate records, joined by “and”; a condition that tells them apart may be missing. Identical values can stand only once. Entries after “also recorded” stand apart in the source; their conditions may differ.

Assays:
[1] = Plasma pharmacokinetics of oral paclitaxel 120 mg/m2 combined with 15 mg kg-1 cyclosporin A in patients (previous study at the Institute); assay type: in vivo, human; conditions: for mean AUCt of paclitaxel metabolite: after oral paclitaxel + CsA, n = 3, mean SD, not published before
Source text: Furthermore, oral administration may enable development of chronic treatment schedules resulting in sustained plasma concentrations above a pharmacological relevant threshold level. […] PATIENTS AND METHODS Patient population Patients with a histologically confirmed cancer refractory to current therapies were eligible for the study. Previous radiotherapy or chemotherapy other than taxoid therapy was allowed, provided that the last treatment was at least four weeks prior to study entry and any resulting toxicities were resolved. […] Patients were not eligible if they suffered from uncontrolled infec- tious disease, neurologic disease, bowel obstruction or sympto- matic brain metastases. Other exclusion criteria were concomitant use of known P-gp inhibitors and chronic use of H2-receptor antagonists or proton pump inhibitors. The study protocol was approved by the Medical Ethics Committee of the Institute and all patients gave written informed consent. […] The oral and i.v. course were randomized. […] Patient evaluation Pretreatment evaluation included a complete medical history and complete physical examination. Before each course, an interim history including concomitant medications taken, toxicities and performance status were registered and a physical examination was performed. Haematology was checked twice weekly after course 1 and 2 and weekly after subsequent courses. Blood chemistries including liver and renal function, serum electrolytes, total protein and albumin and glucose levels were checked weekly. All toxicities observed were graded according to the National Cancer Institute Common Toxicity Criteria (NCI CTC) (National Cancer Institute, 1988). Dose-limiting toxicities (DLT) were defined as grade 4 granulocytopenia of a duration of > 5 days, grade 4 thrombocytopenia of any duration or any grade 3/4 non- haematological toxicity except untreated nausea and vomiting. Tumour measurements were performed every other cycle, but initially after the first 2 i.v. courses. Responses were evaluated according to the WHO criteria (World Health Organization, 1979). Sample collection and analysis Blood samples for pharmacokinetic analyses were collected during course 1 and course 2. […] Blood samples were centrifuged, plasma was separated and samples were immediately stored at -20C until analysis. […] Blood samples were centrifuged at 4C, plasma was separated and samples were imme- diately stored at -20C until analysis. […] Pharmacokinetic analysis Non-compartmental pharmacokinetic methods were applied to process the results (Gibaldi and Perrier, 1982). […] The time above the threshold concentrations of 0.05 M and 0.1 M (T > 0.05 M, T > 0.1 M) was determined using linear interpola- tion. […] Statistical analysis of the data was performed using the nonparametric Mann-Whitney U-test. […]

[2] = Plasma pharmacokinetics of oral paclitaxel 120 mg/m2 combined with 1000 mg oral GF120918 in cancer patients (HPLC, non-compartmental); conditions: for mean AUCt of paclitaxel metabolite: after oral paclitaxel 120 mg/m2 + GF120918, n = 5, mean SD
Source text: (§1) Furthermore, oral administration may enable development of chronic treatment schedules resulting in sustained plasma concentrations above a pharmacological relevant threshold level. […] PATIENTS AND METHODS Patient population Patients with a histologically confirmed cancer refractory to current therapies were eligible for the study. Previous radiotherapy or chemotherapy other than taxoid therapy was allowed, provided that the last treatment was at least four weeks prior to study entry and any resulting toxicities were resolved. […] Patients were not eligible if they suffered from uncontrolled infec- tious disease, neurologic disease, bowel obstruction or sympto- matic brain metastases. Other exclusion criteria were concomitant use of known P-gp inhibitors and chronic use of H2-receptor antagonists or proton pump inhibitors. The study protocol was approved by the Medical Ethics Committee of the Institute and all patients gave written informed consent. […] The oral and i.v. course were randomized. […] Patient evaluation Pretreatment evaluation included a complete medical history and complete physical examination. Before each course, an interim history including concomitant medications taken, toxicities and performance status were registered and a physical examination was performed. Haematology was checked twice weekly after course 1 and 2 and weekly after subsequent courses. Blood chemistries including liver and renal function, serum electrolytes, total protein and albumin and glucose levels were checked weekly. All toxicities observed were graded according to the National Cancer Institute Common Toxicity Criteria (NCI CTC) (National Cancer Institute, 1988). Dose-limiting toxicities (DLT) were defined as grade 4 granulocytopenia of a duration of > 5 days, grade 4 thrombocytopenia of any duration or any grade 3/4 non- haematological toxicity except untreated nausea and vomiting. Tumour measurements were performed every other cycle, but initially after the first 2 i.v. courses. Responses were evaluated according to the WHO criteria (World Health Organization, 1979). Sample collection and analysis Blood samples for pharmacokinetic analyses were collected during course 1 and course 2. […] Blood samples were centrifuged, plasma was separated and samples were immediately stored at -20C until analysis. […] Blood samples were centrifuged at 4C, plasma was separated and samples were imme- diately stored at -20C until analysis. […] Pharmacokinetic analysis Non-compartmental pharmacokinetic methods were applied to process the results (Gibaldi and Perrier, 1982). […] The time above the threshold concentrations of 0.05 M and 0.1 M (T > 0.05 M, T > 0.1 M) was determined using linear interpola- tion. […] Statistical analysis of the data was performed using the nonparametric Mann-Whitney U-test. The a priori level of signifi- cance was P = 0.05.

P-gp = tested on: P-gp; parameters: method as in Hyafil et al, 1993; conditions: ref Hyafil et al, 1993; cited from earlier work
[3] = Plasma pharmacokinetics of GF120918 after a single 1000 mg oral dose in cancer patients (HPLC); assay type: in vivo, human; conditions: 1000 mg oral GF120918; mean SD
Source text: (§2) Furthermore, oral administration may enable development of chronic treatment schedules resulting in sustained plasma concentrations above a pharmacological relevant threshold level. […] PATIENTS AND METHODS Patient population Patients with a histologically confirmed cancer refractory to current therapies were eligible for the study. Previous radiotherapy or chemotherapy other than taxoid therapy was allowed, provided that the last treatment was at least four weeks prior to study entry and any resulting toxicities were resolved. […] Patients were not eligible if they suffered from uncontrolled infec- tious disease, neurologic disease, bowel obstruction or sympto- matic brain metastases. Other exclusion criteria were concomitant use of known P-gp inhibitors and chronic use of H2-receptor antagonists or proton pump inhibitors. The study protocol was approved by the Medical Ethics Committee of the Institute and all patients gave written informed consent. […] The oral and i.v. course were randomized. […] Patient evaluation Pretreatment evaluation included a complete medical history and complete physical examination. […] Responses were evaluated according to the WHO criteria (World Health Organization, 1979). […] The time above the threshold concentrations of 0.05 M and 0.1 M (T > 0.05 M, T > 0.1 M) was determined using linear interpola- tion. […]

[4] = tested on: histologically confirmed cancer refractory to current therapies; experiment: Tumour response according to WHO criteria; assay type: in vivo, human; conditions: six patients; one oral course + GF120918, subsequent i.v. paclitaxel courses
Source text: as §2

[5] = cited from earlier work
[6] = Plasma pharmacokinetics of i.v. paclitaxel 175 mg/m2 as 3-hour infusion in cancer patients (limited sampling model); assay type: in vivo, human; conditions: for AUC: human, plasma, iv
Source text: as §1

[7] = parameters: method as in Malingre et al, 2000; conditions: ref Malingre et al, 2000, cited from earlier work
[8] = Toxicity in patients graded by NCI Common Toxicity Criteria; conditions: one course oral paclitaxel 120 mg/m2 + 1000 mg GF120918
Source text: as §2

[9] = individual patients 1-6, oral 120 mg/m2 + GF120918 1000 mg

CC(=O)O[C@H]1C(=O)[C@@]2(C)[C@H]([C@H](OC(=O)c3ccccc3)[C@]3(O)C[C@H](OC(=O)[C@H](O)[C@@H](NC(=O)c4ccccc4)c4ccc(O)cc4)C(C)=C1C3(C)C)[C@]1(OC(C)=O)CO[C@@H]1C[C@@H]2O [3p-hydroxypaclitaxel]
mean AUCt of paclitaxel metabolite [1]: 0.48 µM·h | mean AUCt of paclitaxel metabolite [2]: 0.36 µM·h

CC(=O)O[C@H]1C(=O)[C@@]2(C)[C@H]([C@H](OC(=O)c3ccccc3)[C@]3(O)C[C@H](OC(=O)[C@H](O)[C@@H](NC(=O)c4ccccc4)c4ccc(O)cc4)C(C)=C1C3(C)C)[C@]1(OC(C)=O)CO[C@@H]1[C@@H](O)[C@@H]2O [6,3p-dihydroxypaclitaxel]
mean AUCt of paclitaxel metabolite [1]: 0.88 µM·h | mean AUCt of paclitaxel metabolite [2]: 0.24 µM·h

CC(=O)O[C@H]1C(=O)[C@@]2(C)[C@H]([C@H](OC(=O)c3ccccc3)[C@]3(O)C[C@H](OC(=O)[C@H](O)[C@@H](NC(=O)c4ccccc4)c4ccccc4)C(C)=C1C3(C)C)[C@]1(OC(C)=O)CO[C@@H]1[C@@H](O)[C@@H]2O [6-hydroxypaclitaxel]
mean AUCt of paclitaxel metabolite [1]: 1.69 µM·h | AUCt ratio 6-hydroxypaclitaxel/3p-hydroxypaclitaxel ([1]; oral paclitaxel + CsA (1.69/0.48)): 3.5 | mean AUCt of paclitaxel metabolite [2]: 0.4 µM·h | AUCt ratio 6-hydroxypaclitaxel/3p-hydroxypaclitaxel ([2]; oral paclitaxel + GF120918 (0.40/0.36)): 1.1

COc1cc2c(cc1OC)CN(CCc1ccc(NC(=O)c3cccc4c(=O)c5cccc(OC)c5[nH]c34)cc1)CC2 [GF120918]
concentration at which active in in vitro models of P-gp inhibition (P-gp): around 20 nM | mean maximum concentration of GF120918 [3]: 434 267 ng ml-1

CC(=O)O[C@H]1C(=O)[C@@]2(C)[C@H]([C@H](OC(=O)c3ccccc3)[C@]3(O)C[C@H](OC(=O)[C@H](O)[C@@H](NC(=O)c4ccccc4)c4ccccc4)C(C)=C1C3(C)C)[C@]1(OC(C)=O)CO[C@@H]1C[C@@H]2O [paclitaxel]
tumour responses [4]: no tumour responses were observed | oral bioavailability of paclitaxel ([5]; background statement, no P-gp blocker, no reference given): < 10% | increase in oral bioavailability of paclitaxel by co-administration of CsA ([5]; cancer patients, oral paclitaxel + CsA, ref Meerum Terwogt et al, 1998, 1999): at least 7 fold | bioavailability of single agent oral paclitaxel ([5]; oral 60 mg/m2 without P-gp blocker, vs i.v. 175 mg/m2, ref Meerum Terwogt et al, 1998, 1999): 4% | apparent bioavailability of oral paclitaxel as a single agent ([5]; using i.v. paclitaxel data at 100 mg/m2 and 125 mg/m2 (Huizing et al, 1997), ref Meerum Terwogt et al, 1999): 6% | AUC ([6]; 175 mg/m2, AUC, i.v. paclitaxel, individual patients 1-6, 175 mg/m2, 3-hour infusion): 18.6 µM·h | AUC ([6]; 175 mg/m2, AUC, i.v. paclitaxel, mean SD, n = 6, 175 mg/m2, 3-hour infusion): 15.9 µM·h | AUC ([6]; 175 mg/m2, mean AUC of paclitaxel, i.v. paclitaxel 175 mg/m2, 3-hour infusion, mean ± SD): 15.9 µM·h | T > 0.1 µM, i.v. paclitaxel ([6]; individual patients 1-6, 175 mg/m2, 3-hour infusion): 22.3 h and 12.1 h and 20.9 h and 13.8 h and 16.6 h and 13.9 h | T > 0.1 µM, i.v. paclitaxel ([6]; mean, n = 6 (SD 4.2 printed in separate line), 175 mg/m2, 3-hour infusion): 16.6 h | mean AUC of paclitaxel ([7]; oral paclitaxel 120 mg/m2 + CsA, previously performed study, mean ± SD): 2.55 ± 2.29 µM·h | Cmax ([7]; read-out: Cmax, oral paclitaxel, oral 120 mg/m2 + 15 mg kg-1 cyclosporin A, n = 3, mean SD): 310 nM | tolerability of the oral combination of paclitaxel with GF120918 [8]: well tolerated; also recorded: very well tolerated | T > 0.1 µM, oral paclitaxel (time above 0.1 µM) [2, 9]: 8.8 h and 15.3 h and 9.6 h and 2.6 h and 4.2 h and 4.3 h | T > 0.05 M, oral paclitaxel (time above 0.05 M) [2, 9]: 15.1 h and 25.0 h and 23.9 h and 3.9 h and 6.1 h and 6.7 h
